The text below walks through data of ChEMBL document CHEMBL4270641, “ATP citrate lyase (ACLY) inhibitors: An anti-cancer strategy at the crossroads of glucose and lipid metabolism” (Eur J Med Chem, 2018).

The structures appear in SMILES notation. pIC50, pKi: −log10 of the molar value. Some results are limits rather than exact numbers.

The pIC50 is −log10 of the IC50, conventionally taken in molar units. As usually defined, the inhibition is the drop in the measured response relative to a control, in per cent. Broadly, the pKi is −log10 of the Ki, conventionally taken in molar units. Read a low pKi as a large Ki.

Assay [1] has as its target T1, ATP-citrate synthase (Homo sapiens, UniProt P53396).
T1 sequence (P53396 whole entry): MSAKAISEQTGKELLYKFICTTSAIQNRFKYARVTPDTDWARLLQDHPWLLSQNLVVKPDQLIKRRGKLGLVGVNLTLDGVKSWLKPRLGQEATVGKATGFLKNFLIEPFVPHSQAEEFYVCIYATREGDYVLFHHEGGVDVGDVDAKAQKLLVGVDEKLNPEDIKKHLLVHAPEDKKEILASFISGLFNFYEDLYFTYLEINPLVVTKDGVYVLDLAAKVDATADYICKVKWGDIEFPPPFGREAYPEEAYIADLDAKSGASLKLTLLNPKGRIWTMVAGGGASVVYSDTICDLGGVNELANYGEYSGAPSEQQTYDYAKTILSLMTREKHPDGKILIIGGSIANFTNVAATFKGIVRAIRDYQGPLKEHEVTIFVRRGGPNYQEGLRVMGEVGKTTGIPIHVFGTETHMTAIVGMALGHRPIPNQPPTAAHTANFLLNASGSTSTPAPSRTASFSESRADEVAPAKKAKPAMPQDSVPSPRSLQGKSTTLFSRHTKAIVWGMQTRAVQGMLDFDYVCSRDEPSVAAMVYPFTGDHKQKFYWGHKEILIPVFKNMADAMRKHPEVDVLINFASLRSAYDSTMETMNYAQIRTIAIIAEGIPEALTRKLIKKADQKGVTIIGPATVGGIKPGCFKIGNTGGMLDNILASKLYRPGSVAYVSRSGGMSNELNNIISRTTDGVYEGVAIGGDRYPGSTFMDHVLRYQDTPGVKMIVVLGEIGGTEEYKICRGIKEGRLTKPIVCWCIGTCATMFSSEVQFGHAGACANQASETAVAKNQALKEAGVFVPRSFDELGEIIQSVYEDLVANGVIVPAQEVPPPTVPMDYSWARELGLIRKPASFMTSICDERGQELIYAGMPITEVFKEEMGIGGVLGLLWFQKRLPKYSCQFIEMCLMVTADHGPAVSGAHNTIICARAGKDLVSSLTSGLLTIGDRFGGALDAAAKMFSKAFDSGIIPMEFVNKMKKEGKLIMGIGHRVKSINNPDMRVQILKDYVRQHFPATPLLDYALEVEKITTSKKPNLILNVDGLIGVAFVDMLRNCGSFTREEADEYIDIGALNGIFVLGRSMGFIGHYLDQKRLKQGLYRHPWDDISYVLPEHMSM
Description: Inhibition of ACLY (unknown origin).

Assay [2] deals with T2, ATP-citrate synthase (Rattus norvegicus) (UniProt P16638).
T2 sequence (whole entry): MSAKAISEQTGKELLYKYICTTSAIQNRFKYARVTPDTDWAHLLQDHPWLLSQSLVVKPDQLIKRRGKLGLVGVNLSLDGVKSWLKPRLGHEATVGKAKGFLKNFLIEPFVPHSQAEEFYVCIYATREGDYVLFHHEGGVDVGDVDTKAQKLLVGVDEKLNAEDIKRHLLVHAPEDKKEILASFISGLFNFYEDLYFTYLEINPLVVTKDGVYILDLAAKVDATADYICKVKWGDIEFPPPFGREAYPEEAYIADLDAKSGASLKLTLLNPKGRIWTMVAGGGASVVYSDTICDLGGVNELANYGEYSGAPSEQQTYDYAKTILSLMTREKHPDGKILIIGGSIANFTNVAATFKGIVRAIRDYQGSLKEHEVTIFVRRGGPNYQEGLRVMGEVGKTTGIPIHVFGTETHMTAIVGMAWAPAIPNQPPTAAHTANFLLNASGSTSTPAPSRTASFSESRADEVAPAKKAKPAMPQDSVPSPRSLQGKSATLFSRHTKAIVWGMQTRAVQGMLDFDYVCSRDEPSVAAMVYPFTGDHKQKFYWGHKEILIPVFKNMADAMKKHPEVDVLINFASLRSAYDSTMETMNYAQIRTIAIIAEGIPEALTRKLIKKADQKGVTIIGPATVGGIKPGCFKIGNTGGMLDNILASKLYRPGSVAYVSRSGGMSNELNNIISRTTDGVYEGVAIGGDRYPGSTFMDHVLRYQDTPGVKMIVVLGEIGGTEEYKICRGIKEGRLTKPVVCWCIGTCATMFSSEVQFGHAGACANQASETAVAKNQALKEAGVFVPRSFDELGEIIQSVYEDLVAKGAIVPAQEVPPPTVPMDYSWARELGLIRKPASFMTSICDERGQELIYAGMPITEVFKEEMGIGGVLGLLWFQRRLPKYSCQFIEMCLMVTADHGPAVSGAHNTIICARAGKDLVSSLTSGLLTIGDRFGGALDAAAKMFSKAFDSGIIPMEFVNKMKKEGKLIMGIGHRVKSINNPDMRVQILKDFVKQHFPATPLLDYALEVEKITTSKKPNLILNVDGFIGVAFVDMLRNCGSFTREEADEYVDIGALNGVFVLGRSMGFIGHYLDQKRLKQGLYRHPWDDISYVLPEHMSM
Kind of assay: (§1) Inhibition of rat liver ACLY. The settings on record: concentration not given here.

Assay [3] has as its target T3, ATP-citrate synthase (Rattus norvegicus, UniProt P16638).
T3 sequence (P16638 whole entry): T2 sequence (whole entry)
The assay is described as §1.

The test system of assay [4] is PC-3. Kind of assay: Antiproliferative activity against human PC3 cells. The assay is classed as functional, cell-based.
The test system of assay [5] is LNCaP. Kind of assay: Antiproliferative activity against human LNCAP cells. The assay is classed as functional, cell-based.
Assay [6] deals with T1, ATP-citrate synthase.
Description: Competitive inhibition of human liver ACLY using varying levels of citrate as substrate
The test system of assay [7] is Canis familiaris. Description: In vivo inhibition of ACLY in po dosed dog assessed as reduction in plasma cholesterol level after 15 days relative to control. The assay is classed as functional, Canis lupus familiaris.
The subject of assay [8] is Rattus norvegicus. Kind of assay: In vivo inhibition of ACLY in po dosed rat assessed as reduction in plasma triglyceride level after 7 days relative to control. The assay is classed as functional.
The subject of assay [9] is Rattus norvegicus. Description: In vivo inhibition of ACLY in po dosed rat assessed as reduction in plasma cholesterol level after 7 days relative to control. The class given is functional.
For assay [10], the system named is Canis familiaris. Kind of assay: In vivo inhibition of ACLY in po dosed dog assessed as reduction in plasma triglyceride level after 15 days relative to control. The class given is functional, Canis lupus familiaris.
Assay [11] has as its system A549. Description: Antiproliferative activity against human A549 cells. The assay is classed as functional, cell-based.
The target in assay [12] is T4, ATP-citrate synthase (Homo sapiens) (UniProt P53396).
T4 sequence (whole entry): T1 sequence (P53396 whole entry)
Description: Inhibition of ACLY in human HepG2 cells assessed as reduction in cholesterol synthesis at 30 uM relative to control. The assay is classed as cell-based.

Assay [13] deals with SK-OV-3. Description: Antiproliferative activity against human SKOV3 cells. The assay is classed as functional, cell-based.
Assay [14] addresses T4, ATP-citrate synthase (Homo sapiens). Description: Inhibition of ACLY in human HepG2 cells assessed as reduction in fatty acid synthesis at 30 uM relative to control. The assay is classed as cell-based.
In assay [15] the target is T3, ATP-citrate synthase. Description: Reversible inhibition of rat liver ACLY.
The test system of assay [16] is Rattus norvegicus. Description: In vivo inhibition of ACLY in rat administered through diet relative to control. The assay is classed as functional.

Compound `O=C1C(c2ccc(O)c(O)c2)=c2c(c3c(n2CCc2ccc(O)cc2)=C(c2ccc(O)c(O)c2)C(=O)c2cc(O)c(O)cc2-3)-c2cc(O)c(O)cc21` [PURPURONE] had a pIC50 in [1] of 5.15.

As for `O=CC(=O)c1ccccc1`, in assay [2], the inhibition came to 85%.

Compound `CC1=CC(O)=C2C(=O)c3c(ccc(-c4ccc5c(c4O)C(=O)C4=C(O)C6OC6(C)C(OC(=O)CC(=O)O)C4(C)O5)c3O)OC2(C)C1=O` (stereo not given) showed a pIC50 in [3] of 5.21.

With `CC12Oc3ccc(-c4ccc5c(c4O)C(=O)C4=C(O)C6OC6(C)C(OC(=O)CC(=O)O)C4(C)O5)c(O)c3C(=O)C1=C(O)C1OC1(C)C2O` (stereo not given), the pIC50 in assay [3] was 5.02. In the case of `CC(=O)OC(C)(C)/C=C/C(=O)[C@](C)(O)[C@H]1[C@H](O)C[C@@]2(C)[C@@H]3CC=C4[C@@H](C[C@H](O)C(=O)C4(C)C)[C@]3(C)C(=O)C[C@]12C`, the pIC50 in assay [4] and in assay [5] was 7.00 throughout. Turning to `O=C(O)C[C@@](O)(C(=O)O)[C@H](O)C(=O)O`, the pKi in assay [6] is 3.52. Take `CCCCCC[C@H]1C(=O)O[C@H](C)[C@H](NC(=O)c2cccc(NC=O)c2O)C(=O)O[C@@H](C)[C@@H]1OC(=O)CCC`: the pKi in assay [3] was 5.40. As to `O=C(O)C[C@@](O)(C[C@H](O)CCCCCCc1ccc(Cl)cc1Cl)C(=O)O`, the “inhibition (INH)” value in assay [7] is “<=23%”; in [8], “<=80%”; in assay [9], “<=46%”; in [10], “<=38%”. For `O=C(O)C[C@@]1(O)C[C@@H](CCCCCCc2ccc(Cl)cc2Cl)OC1=O`, the negative-log IC50 (pIC50) in assay [11] was 4.62; in [4], 4.59; in [13], 4.28. For the same compound, the inhibition is 91% in [12] and 82% in [14].

Compound `CC(=O)C(C)=O` came in with an inhibition in assay [2] of 35%. In [15], `CS(=N)(=O)C[C@@](O)(CC(=O)O)C(=O)O` (stereo not given in full) showed a negative logarithm of the Ki (pKi) of 3.60. Compound `CCCCCC[C@H]1C(=O)O[C@H](C)[C@H](NC(=O)c2cccc(NC=O)c2O)C(=O)O[C@@H](C)[C@@H]1OC(=O)C(C)C` showed a negative-log Ki (pKi) in assay [3] of 5.40. The same measure, in the same setting: then `O=C1C[C@@](O)(C(=O)O)[C@@H](C(=O)O)O1`, with 4.00 to 4.30; and `CC(C)CC[C@H]1C(=O)O[C@H](C)[C@H](NC(=O)c2cccc(NC=O)c2O)C(=O)O[C@@H](C)[C@@H]1OC(=O)CC(C)C`, with 5.40; and `CCC(C)C(=O)O[C@H]1[C@H](C)OC(=O)[C@@H](NC(=O)c2cccc(NC=O)c2O)[C@@H](C)OC(=O)[C@@H]1CCC(C)C` (stereo not given in full), with 5.40. In assay [3], `N[C@@H](CCC(=O)O)C(=O)O` [GLUTAMIC ACID] gave a pKi of 3.52. For `Clc1cccc(-c2ccc(Cl)c(Cl)c2Cl)c1Cl`, the “inhibition (INH)” value in [16] is recorded as 69%.
